Results on 24 compounds are retold here after patent US20100113421A1, “NON-NUCLEOSIDE REVERSE TRANSCRIPTASE INHIBITORS” (priority 2006, published 2010).

Structures are written as SMILES. Like-named read-outs stand apart in the source and are kept apart here.

The test system of experiment [1] is HIV strain containing the Y181C mutation. The experiment is described as follows: Spread assay, Y181C mutant strain. The format is cell-based. Summed up: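 Acute HIV-1 infection of T-lymphoid cells run in the presence of 10% FBS, […]; potency expressed as CIC95.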
Experiment [2] has as its system mutant strain containing both the K103N and Y181C mutations. The experiment is described as follows: Spread assay, mutant strain containing both K103N and Y181C. The format is cell-based, HIV. Here is the method: Assays for the inhibition of acute HIV-1 infection of T-lymphoid cells (alternatively referred to herein as the “spread assay”) were conducted in accordance with Vacca, J. P. et al., Proc. Natl. Acad. Sci. USA 1994, 91: 4096. The assays (using 10% FBS) tested for inhibition of wild type HIV-1 and of HIV strains containing the Y181C or K103N mutation. […] (Note that the compound of Example 6 was tested only up to a 833 nM concentration and the CIC95 value was determined to be >833 nM. The compound of Example 78 was not tested in the Y1818C assay.) The compounds of Examples 1 to 119 (including Examples 70A and 70B) had CIC95 values of less than 1000 nanomolar in the assay employing the K103N mutant strain. In an analogous assay employing a mutant strain containing both the K103N and Y181C mutations, the compounds of Examples 70A, 70B and 78-115 had CIC95 values of less than 1000 nanomolar.

Where [3] appears, read: Human immunodeficiency virus 1, read-out: CIC95.
Where [4] appears, read: Human immunodeficiency virus 1, analogous spread assay, K103N and Y181C double mutant strain, read-out: CIC95.
The mark [5] stands for this setting: Human immunodeficiency virus 1, spread assay, 10% FBS, Y181C mutant strain, read-out: CIC95.

Regarding `CC(C)c1c(C(=O)N(C)Cc2ccc3ncccc3c2Cl)[nH]c(C(N)=O)c1S(=O)(=O)c1ccccc1` [Example 70A, 3-isopropyl-N-methyl-4-(phenylsulfonyl)-N-[(5-chloroquinolin-6-yl)methyl]-1H-pyrrole-2,5-dicarboxamide], the IC95 was < 8 µM in experiment [1] (setting [3]) and < 1 µM in experiment [2] (setting [3]).

Take `CC(C)c1c(C(=O)N(C)Cc2cc3cccnc3cc2Cl)[nH]c(C(N)=O)c1S(=O)(=O)c1ccccc1` [Example 70B, 3-isopropyl-N-methyl-4-(phenylsulfonyl)-N-[(7-chloroquinolin-6-yl)methyl]-1H-pyrrole-2,5-dicarboxamide]: the results for the IC95 in experiment [1] (setting [3]) and in experiment [2] (setting [3]) were < 8 µM and < 1 µM, respectively.

Regarding `Cc1c(C(=O)N2CCCc3ccccc3C2)[nH]c(C(N)=O)c1S(=O)(=O)c1ccccc1` [Example 78, 4-Methyl-3-(phenylsulfonyl)-5-(1,3,4,5-tetrahydro-2H-2-benzazepine-2-ylcarbonyl)-1H-pyrrole-2-carboxamide], the IC95 in experiment [2] (setting [4]) is < 1 µM.

Regarding `Cc1cc(C)cc(S(=O)(=O)c2c(C(N)=O)[nH]c(C(=O)N3CCCc4ccccc4C3)c2C)c1` [Example 79, 4-Methyl-3-(3,5-dimethylphenylsulfonyl)-5-(1,3,4,5-tetrahydro-2H-2-benzazepine-2-ylcarbonyl)-1H-pyrrole-2-carboxamide], the results for the IC95 in experiment [1] (setting [5]) and in experiment [2] (setting [4]) were < 8 µM and < 1 µM, respectively.

For `Cc1cc(C)cc(S(=O)(=O)c2c(C(N)=O)[nH]c(C(=O)N3CCCc4sccc4C3)c2C)c1` [Example 80, 3-[(3,5-Dimethylphenyl)sulfonyl]-4-methyl-5-(4,6,7,8-tetrahydro-5H-thieno[3,2-c]azepin-5-ylcarbonyl)-1H-pyrrole-2-carboxamide], the IC95 in experiment [1] (setting [5]) is < 8 µM; in experiment [2] (setting [4]), < 1 µM.

`COc1ccc2c(c1)CN(C(=O)c1[nH]c(C(N)=O)c(S(=O)(=O)c3cc(Cl)cc(Cl)c3)c1C)CCC2` [Example 81, 3-[(3,5-dichlorophenyl)sulfonyl]-4-methyl-5-(8-methoxy-1,3,4,5-tetrahydro-2H-2-benzazepin-2-ylcarbonyl)-1H-pyrrole-2-carboxamide]: the IC95 in experiment [1] (setting [5]) is < 8 µM; in experiment [2] (setting [4]), < 1 µM.

On to `Cc1c(C(=O)N2CCCc3ccc(O)cc3C2)[nH]c(C(N)=O)c1S(=O)(=O)c1cc(Cl)cc(Cl)c1` [Example 82, 3-[(3,5-dichlorophenyl)sulfonyl]-4-methyl-5-(8-hydroxy-1,3,4,5-tetrahydro-2H-2-benzazepin-2-ylcarbonyl)-1H-pyrrole-2-carboxamide], for which the IC95 was < 8 µM in experiment [1] (setting [5]) and < 1 µM in experiment [2] (setting [4]).

As to `Cc1c(C(=O)N2CCCc3ccccc3C2)[nH]c(C(N)=O)c1S(=O)(=O)c1cc(Cl)cc(Cl)c1` [Example 83, 3-[(3,5-dichlorophenyl)sulfonyl]-4-methyl-5-(1,3,4,5-tetrahydro-2H-2-benzazepin-2-ylcarbonyl)-1H-pyrrole-2-carboxamide], the IC95 was < 8 µM in experiment [1] (setting [5]) and < 1 µM in experiment [2] (setting [4]).

For `Cc1c(C(=O)N2CCCc3sccc3C2)[nH]c(C(N)=O)c1S(=O)(=O)c1cc(Cl)cc(Cl)c1` [Example 84, 3-[(3,5-dichlorophenyl)sulfonyl]-4-methyl-5-(4,6,7,8-tetrahydro-5H-thieno[3,2-c]azepin-5-ylcarbonyl)-1H-pyrrole-2-carboxamide], the IC95 in experiment [1] (setting [5]) was < 8 µM; in experiment [2] (setting [4]), < 1 µM.

For the compound `COc1ccc2c(c1)CCCN(C(=O)c1[nH]c(C(N)=O)c(S(=O)(=O)c3cc(Cl)cc(Cl)c3)c1C)C2` [Example 85, 3-[(3,5-dichlorophenyl)sulfonyl]-4-methyl-5-(7-methoxy-1,3,4,5-tetrahydro-2H-2-benzazepin-2-ylcarbonyl)-1H-pyrrole-2-carboxamide], the IC95 in experiment [1] (setting [5]) was < 8 µM; in experiment [2] (setting [4]), < 1 µM.

With `Cc1c(C(=O)N2CCCc3cc(O)ccc3C2)[nH]c(C(N)=O)c1S(=O)(=O)c1cc(Cl)cc(Cl)c1` [Example 86, 3-[(3,5-dichlorophenyl)sulfonyl]-4-methyl-5-(7-hydroxy-1,3,4,5-tetrahydro-2H-2-benzazepin-2-ylcarbonyl)-1H-pyrrole-2-carboxamide], the IC95 in experiment [1] (setting [5]) was < 8 µM; in experiment [2] (setting [4]), < 1 µM.

As for `COc1ccc2c(c1)CCCN(C(=O)c1[nH]c(C(N)=O)c(S(=O)(=O)c3cc(C)cc(C)c3)c1C)C2` [Example 87, 3-[(3,5-dimethylphenyl)sulfonyl]-4-methyl-5-(7-methoxy-1,3,4,5-tetrahydro-2H-2-benzazepin-2-ylcarbonyl)-1H-pyrrole-2-carboxamide], the IC95 was < 8 µM in experiment [1] (setting [5]) and < 1 µM in experiment [2] (setting [4]).

`Cc1cc(C)cc(S(=O)(=O)c2c(C(N)=O)[nH]c(C(=O)N3CCCc4cc(O)ccc4C3)c2C)c1` [Example 88, 3-[(3,5-dimethylphenyl)sulfonyl]-4-methyl-5-(7-hydroxy-1,3,4,5-tetrahydro-2H-2-benzazepin-2-ylcarbonyl)-1H-pyrrole-2-carboxamide]: the figures for the IC95 in experiment [1] (setting [5]) and in experiment [2] (setting [4]) were < 8 µM and < 1 µM, respectively.

Regarding `COc1ccc2c(c1)CN(C(=O)c1[nH]c(C(N)=O)c(S(=O)(=O)c3cc(C)cc(C)c3)c1C)CCC2` [Example 89, 3-[(3,5-dimethylphenyl)sulfonyl]-4-methyl-5-(8-methoxy-1,3,4,5-tetrahydro-2H-2-benzazepin-2-ylcarbonyl)-1H-pyrrole-2-carboxamide], the IC95 in experiment [1] (setting [5]) is < 8 µM; in experiment [2] (setting [4]) it was < 1 µM.

With `Cc1cc(C)cc(S(=O)(=O)c2c(C(N)=O)[nH]c(C(=O)N3CCCc4ccc(O)cc4C3)c2C)c1` [Example 90, 3-[(3,5-dimethylphenyl)sulfonyl]-4-methyl-5-(8-hydroxy-1,3,4,5-tetrahydro-2H-2-benzazepin-2-ylcarbonyl)-1H-pyrrole-2-carboxamide], the IC95 was < 8 µM in experiment [1] (setting [5]) and < 1 µM in experiment [2] (setting [4]).

As for `COc1ccc2c(c1)CN(C(=O)c1[nH]c(C(N)=O)c(S(=O)(=O)c3ccccc3)c1C)CCC2` [Example 91, 3-(phenylsulfonyl)-4-methyl-5-(8-methoxy-1,3,4,5-tetrahydro-2H-2-benzazepin-2-ylcarbonyl)-1H-pyrrole-2-carboxamide], the IC95 in experiment [1] (setting [5]) was < 8 µM; in experiment [2] (setting [4]) it was < 1 µM.

As for `Cc1c(C(=O)N2CCCc3ccc(O)cc3C2)[nH]c(C(N)=O)c1S(=O)(=O)c1ccccc1` [Example 92, 3-(phenylsulfonyl)-4-methyl-5-(8-hydroxy-1,3,4,5-tetrahydro-2H-2-benzazepin-2-ylcarbonyl)-1H-pyrrole-2-carboxamide], the IC95 in experiment [1] (setting [5]) was < 8 µM; in experiment [2] (setting [4]), < 1 µM.

Consider `COc1ccc2c(c1)CN(C(=O)c1[nH]c(C(N)=O)c(S(=O)(=O)c3cccc(F)c3)c1C)CCC2` [Example 93, 3-[(3-fluorophenyl)sulfonyl]-4-methyl-5-(8-methoxy-1,3,4,5-tetrahydro-2H-2-benzazepin-2-ylcarbonyl)-1H-pyrrole-2-carboxamide], for which the IC95 is < 8 µM in experiment [1] (setting [5]) and < 1 µM in experiment [2] (setting [4]).

`Cc1c(C(=O)N2CCCc3ccc(O)cc3C2)[nH]c(C(N)=O)c1S(=O)(=O)c1cccc(F)c1` [Example 94, 3-[(3-fluorophenyl)sulfonyl]-4-methyl-5-(8-hydroxy-1,3,4,5-tetrahydro-2H-2-benzazepin-2-ylcarbonyl)-1H-pyrrole-2-carboxamide]: the IC95 was < 8 µM in experiment [1] (setting [5]) and < 1 µM in experiment [2] (setting [4]).

Take `COc1ccc2c(c1)CN(C(=O)c1[nH]c(C(N)=O)c(S(=O)(=O)c3cccc(C(F)(F)F)c3)c1C)CCC2` [Example 95, 3-[(3-(1,1,1-trifluoromethyl)phenyl)sulfonyl]-4-methyl-5-(8-methoxy-1,3,4,5-tetrahydro-2H-2-benzazepin-2-ylcarbonyl)-1H-pyrrole-2-carboxamide]: the results for the IC95 in experiment [1] (setting [5]) and in experiment [2] (setting [4]) were < 8 µM and < 1 µM, respectively.

For the compound `Cc1c(C(=O)N2CCCc3sc(Cl)cc3C2)[nH]c(C(N)=O)c1S(=O)(=O)c1cc(Cl)cc(Cl)c1` [Example 96, 3-[(3,5-Dichlorophenyl)sulfonyl]-4-methyl-5-[(2-chloro-4,6,7,8-tetrahydro-5H-thieno[3,2-c]azepin-5-yl)carbonyl]-1H-pyrrole-2-carboxamide], the IC95 in experiment [1] (setting [5]) was < 8 µM; in experiment [2] (setting [4]) it was < 1 µM.

Take `Cc1c(C(=O)N2CCCc3sc(S(C)(=O)=O)cc3C2)[nH]c(C(N)=O)c1S(=O)(=O)c1cc(Cl)cc(Cl)c1` [Example 97]: the IC95 was < 8 µM in experiment [1] (setting [5]) and < 1 µM in experiment [2] (setting [4]).

In the case of `Cc1cc(C)cc(S(=O)(=O)c2c(C(N)=O)[nH]c(C(=O)N3CCCc4sc(S(C)(=O)=O)cc4C3)c2C)c1` [Example 98, 3-[(3,5-Dimethylphenyl)sulfonyl]-4-methyl-5-[(2-(methylsulfonyl)-4,6,7,8-tetrahydro-5H-thieno[3,2-c]azepin-5-yl)carbonyl]-1H-pyrrole-2-carboxamide], the values for the IC95 in experiment [1] (setting [5]) and in experiment [2] (setting [4]) were < 8 µM and < 1 µM, respectively.

Turning to `CC(C)c1c(C(=O)N(C)Cc2ccnc(N)c2)[nH]c(C(N)=O)c1S(=O)(=O)c1cccc(F)c1` [Example 99, N5-[(2-aminopyridin-4-yl)methyl]-3-[(3-fluorophenyl)sulfonyl]-4-isopropyl-N5-methyl-1H-pyrrole-2,5-dicarboxamide], the figures for the IC95 in experiment [1] (setting [5]) and in experiment [2] (setting [4]) were < 8 µM and < 1 µM, respectively.
